According to ChEMBL document CHEMBL1145660, “Antimicrobial Neolignans of Sassafras randaiense Roots” (1983):
Values after ≈ are worked out from the molar mass of the structure shown.

Key:
Type in all cases: functional
[1] = test system: Mycolicibacterium smegmatis; test: Antimicrobial activity against Mycobacterium smegmatis ATCC 607
[2] = test system: Trichophyton mentagrophytes; test: Antimicrobial activity against Trichophyton mentagrophytes ATCC 9972
Staphylococcus aureus = test: Antimicrobial activity against Staphylococcus aureus ATCC 6538
Saccharomyces cerevisiae = test: Antimicrobial activity against Saccharomyces cerevisiae ATCC 9763

`C=CCc1ccc(Oc2cc(CC=C)ccc2O)cc1` [ISOMAGNOLOL] showed an MIC [1] of 1.56 µg/mL (≈ 5.86 µM), an MIC [2] of 1.56 µg/mL (≈ 5.86 µM) and an MIC (Staphylococcus aureus) of 3.12 µg/mL (≈ 11.7 µM). For the same molecule, the MIC (Saccharomyces cerevisiae) was 25 µg/mL (≈ 93.9 µM).
